Results from patent US20170354148A1, “SAFENED HERBICIDAL COMPOSITIONS CONTAINING HALAUXIFEN AND METHODS OF USE THEREOF IN BRASSICA SPECIES” (Dow AgroSciences LLC, priority 2016, published 2017).

Assays:
Settings in all cases: in vivo
[1] = test system: Roundup Ready® canola (Brassica napus, RR-BRSNN)
[2] = test system: kale/Chinese kale (Brassica alboglabra, BRSAG)
[3] = test system: Nexera™ canola (Brassica napus, BRSNN-NEX)
[4] = test system: rutabaga (Brassica napus var. napobrassica, BRSNA)
[5] = test system: turnip or Polish canola (Brassica rapa, BRSRR)
[6] = test system: winter oilseed rape (Brassica napus, BRSNW)

CCCCCC(C)OC(=O)COc1ccc(Cl)c2cccnc12 (stereo not drawn) [Cloquintocet-mexyl, 1-methylhexyl (5-chloroquinolin-8-yloxy)acetate]
0%: Percent (%) Visual Injury RR-BRSNN Obs [1] | Percent (%) Visual Injury BRSAG Obs [2] | Percent (%) Visual Injury BRSNN-NEX Obs [3] | Percent (%) Visual Injury BRSNA Obs [4] | Percent (%) Visual Injury BRSRR Obs [5] | Percent (%) Visual Injury BRSNW Obs [6]
